pIC50, pKi: −log10 of the molar value.
Experiments:
[1] = test system: norepinephrine uptake by synaptosomes from rat brain; test: Blockage of norepinephrine uptake in vitro by synaptosomes from rat brain (Table 1); assay type: biochemical; conditions: norepinephrine 0.48 μuM, read-out: IC50 Norepinephrine (concentration that blocks uptake by 50 percent)
Text: (§1) This blockade is shown both in vitro using radioactive labelled compounds to determine the amount of monoamine uptake by synaptosomes from rat brain, and in vivo by a variety of methods using the procedure of Wong and Bymaster, Biochem. Pharmacol., 25, 1978 (1976). Among the physiologically active monoamines whose uptake is blocked by the compounds of this invention are included serotonin, norepinephrine and dopamine (3,4-dihydroxyphenylethylamine). […] Table 1 which follows sets forth the results of some of the in vitro determinations of the blockage of monoamine uptake by the compounds of this invention. In the table, column 1 gives the R substituent on the 1-phenylpropylamine, colums 2 and 3, the R^1 and R^2 substituents on the amine nitrogen and columns […], the concentration in micrograms per ml. that blocks the uptake of a particular amine by 50 percent (IC50) for the amines, serotonin and norephinephrine. At the head of each column is given the concentration of the particular monoamine used in the experiment.

[2] = test system: serotonin uptake by synaptosomes from rat brain; test: Blockage of serotonin uptake in vitro by synaptosomes from rat brain (Table 1); assay type: biochemical; conditions: serotonin 0.1 μuM, read-out: IC50 Serotonin (concentration that blocks uptake by 50 percent)
Text: as §1

[3] = test system: serotonin uptake versus norepinephrine uptake; test: Relative effectiveness in inhibiting serotonin versus norepinephrine uptake
[4] = test system: uptake of serotonin by hypothalamic synaptosomes; test: In vivo inhibition of serotonin uptake by hypothalamic synaptosomes after intraperitoneal injection; conditions: ip, as hydrochloride salt, read-out: calculated ED50 (effective dose), inhibition of serotonin uptake by hypothalamic synaptosomes
Experimental: (§2) There was also a decrease in norepinephrine uptake at a 100 mg./kg level but the reduction was less than 50% at this high dose level.

[5] = test system: norepinephrine uptake; test: In vivo decrease in norepinephrine uptake after intraperitoneal injection; conditions: 100 mg./kg level, hydrochloride salt
Experimental: as §2

[6] = target: uptake of serotonin in cortical synaptosomes (Rattus norvegicus, UniProt P31652); test: Inhibition of serotonin uptake in cortical synaptosomes, kinetics; assay type: biochemical, Sprague-Dawley rats
Chain of uptake of serotonin in cortical synaptosomes (P31652 whole entry): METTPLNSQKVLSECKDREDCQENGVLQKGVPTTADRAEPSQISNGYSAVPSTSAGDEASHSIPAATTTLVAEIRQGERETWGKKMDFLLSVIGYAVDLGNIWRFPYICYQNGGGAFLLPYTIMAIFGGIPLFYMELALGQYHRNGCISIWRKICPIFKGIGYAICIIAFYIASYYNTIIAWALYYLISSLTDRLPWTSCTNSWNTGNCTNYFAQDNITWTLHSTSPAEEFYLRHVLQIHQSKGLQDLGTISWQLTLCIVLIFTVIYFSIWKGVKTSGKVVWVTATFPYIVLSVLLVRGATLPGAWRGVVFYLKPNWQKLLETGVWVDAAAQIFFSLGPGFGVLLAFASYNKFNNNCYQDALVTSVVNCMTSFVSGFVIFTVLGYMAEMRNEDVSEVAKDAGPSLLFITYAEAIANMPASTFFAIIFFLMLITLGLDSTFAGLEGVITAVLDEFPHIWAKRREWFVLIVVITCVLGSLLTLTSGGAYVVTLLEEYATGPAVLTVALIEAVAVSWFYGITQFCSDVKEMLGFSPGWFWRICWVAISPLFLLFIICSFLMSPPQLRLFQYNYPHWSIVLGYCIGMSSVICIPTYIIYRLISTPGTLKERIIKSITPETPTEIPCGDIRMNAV
Experimental: (§3) The uptake of serotonin in cortical synaptosomes and in platelets of human plasma in the presence of this compound were studied. Corticosynaptosomes were prepared as follows: Sprague-Dawley rats weighing about 150 g. were decapitated and their brains immediately removed and dissected. Crude synaptosomes were prepared from a 10 percent homogenate in 0.32 M scurose and in 10 μM glucose by differential centrifugation according to the procedure of Wong and Bymaster (loc. cit.).

[7] = target: T1, uptake of norepinephrine (Rattus norvegicus, UniProt Q63380); test: Inhibition of norepinephrine uptake in synaptosomes, kinetics; assay type: biochemical, Sprague-Dawley rats
T1 construct: from tissue; host or cells: synaptosomes of Sprague-Dawley rat brain (cortex, by 'similar experiment')
T1 sequence (Q63380 1-617): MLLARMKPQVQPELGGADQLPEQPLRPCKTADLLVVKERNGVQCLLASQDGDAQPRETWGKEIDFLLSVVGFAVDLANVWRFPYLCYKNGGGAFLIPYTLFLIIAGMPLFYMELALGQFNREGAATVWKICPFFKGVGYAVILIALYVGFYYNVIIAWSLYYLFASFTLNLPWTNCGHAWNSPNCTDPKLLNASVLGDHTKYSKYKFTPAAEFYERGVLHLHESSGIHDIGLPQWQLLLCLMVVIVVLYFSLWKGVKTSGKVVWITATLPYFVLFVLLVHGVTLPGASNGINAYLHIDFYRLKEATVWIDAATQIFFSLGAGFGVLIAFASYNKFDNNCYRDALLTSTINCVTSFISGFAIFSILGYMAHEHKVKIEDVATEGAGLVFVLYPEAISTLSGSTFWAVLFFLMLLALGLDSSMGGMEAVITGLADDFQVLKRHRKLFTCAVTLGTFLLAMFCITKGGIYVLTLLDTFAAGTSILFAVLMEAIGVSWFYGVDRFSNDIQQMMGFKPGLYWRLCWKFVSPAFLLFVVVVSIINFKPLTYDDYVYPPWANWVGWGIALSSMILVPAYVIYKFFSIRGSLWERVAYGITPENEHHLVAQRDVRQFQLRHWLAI
Experimental: as §3

[8] = test system: uptake of physiologically active monoamines; test: Blocking of uptake of physiologically active monoamines (serotonin, norepinephrine, dopamine); conditions: in vitro and in vivo
Text: as §1

[9] = test system: uptake of serotonin by platelets; conditions: human platelet-rich plasma; estimated value
Experimental: A study of the uptake of serotonin from platelets was carried out as follows: platelet-rich plasma from human volunteers was prepared according to the method of Sneddon, Brit. […] The platelet uptake of serotonin was determined by the procedure of Horng and Wong, Biochem. Pharmacol., 25, 865 (1976).

[10] = target: dopamine uptake from synaptosomes isolated from corpus striatum (Rattus norvegicus, UniProt P23977); test: Inhibition of dopamine uptake in synaptosomes isolated from corpus striatum
Chain of dopamine uptake from synaptosomes isolated from corpus striatum (P23977 whole entry): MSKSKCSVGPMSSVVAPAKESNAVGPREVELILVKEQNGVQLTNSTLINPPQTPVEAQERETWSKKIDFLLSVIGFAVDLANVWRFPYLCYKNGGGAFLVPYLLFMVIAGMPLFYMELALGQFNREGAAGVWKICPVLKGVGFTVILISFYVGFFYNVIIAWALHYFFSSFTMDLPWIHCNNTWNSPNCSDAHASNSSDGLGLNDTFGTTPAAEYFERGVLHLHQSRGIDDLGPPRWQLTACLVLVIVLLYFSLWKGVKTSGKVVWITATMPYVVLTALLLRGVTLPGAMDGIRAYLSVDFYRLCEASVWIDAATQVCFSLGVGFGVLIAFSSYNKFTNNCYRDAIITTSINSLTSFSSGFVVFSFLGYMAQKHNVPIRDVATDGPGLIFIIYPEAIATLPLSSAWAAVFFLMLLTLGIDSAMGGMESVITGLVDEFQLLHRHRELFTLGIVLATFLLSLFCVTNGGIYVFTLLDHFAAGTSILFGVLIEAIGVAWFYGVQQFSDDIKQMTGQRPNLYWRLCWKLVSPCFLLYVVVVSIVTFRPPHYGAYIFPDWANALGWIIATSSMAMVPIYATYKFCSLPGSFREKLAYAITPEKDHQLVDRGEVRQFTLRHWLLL

[11] = test system: chronic undifferentiated schizophrenic patients; conditions: oral administration, cited from earlier work

COc1ccccc1OCCC(c1ccccc1)N(C)C (stereo not shown) [o-anisyl, CH3, CH3, N,N-dimethyl 3-(o-anisyloxy)-1-phenylpropylamine]
pIC50 [1]: 6.52 | pIC50 [2]: 7.00

CNC(CCOc1ccccc1OC)c1ccccc1 (stereo not shown) [o-anisyl, CH3, H, N-methyl 1-phenyl-3-(o-anisyloxy)propylamine]
pIC50 [1]: 6.30 | pIC50 [2]: 6.30

Cc1cccc(OCCC(N)c2ccccc2)c1 (stereo not shown) [m-tolyl, H, H]
pIC50 [1]: 5.24 | pIC50 [2]: 5.85

CN(C)C(CCOc1ccc(C(F)(F)F)cc1)c1ccccc1 (stereo not shown) [p-trifluoromethylphenyl, CH3, CH3, N,N-dimethyl 1-phenyl-3-(p-trifluoromethylphenoxy)-propylamine]
pIC50 [1]: 5.00 | pIC50 [2]: 6.68

CNC(CCOc1ccccc1)c1ccccc1 (stereo not shown) [phenyl, CH3, H, N-methyl 3-phenoxy-1-phenylpropylamine]
pIC50 [1]: 6.44 | pIC50 [2]: 6.00

COc1ccccc1OCCC(N)c1ccccc1 (stereo not shown) [o-anisyl, H, H, 1-phenyl-3-(o-anisyloxy)propylamine]
pIC50 [1]: 5.85 | pIC50 [2]: 5.37

CN(C)C(CCOc1ccccc1)c1ccccc1 (stereo not shown) [phenyl, CH3, CH3, N,N-dimethyl 1-phenyl-3-phenoxypropylamine]
pIC50 [1]: 6.15 | pIC50 [2]: 6.00

CNC(CCOc1ccc(C(F)(F)F)cc1)c1ccccc1 (stereo not shown) [p-trifluoromethylphenyl, CH3, H, N-methyl 1-phenyl-3-(p-trifluoromethylphenoxy)-propylamine]
pIC50 [1]: 5.00 | pIC50 [2]: 6.68

NC(CCOc1ccccc1)c1ccccc1 (stereo not shown) [phenyl, H, H, 1-Phenyl-3-phenoxypropylamine]
pIC50 [1]: 6.25 | pIC50 [2]: 5.25

Cc1ccccc1OCCC(N)c1ccccc1 (stereo not shown) [o-tolyl, H, H, 3-(o-cresol)-1-phenylpropylamine]
pIC50 [1]: 5.34 | pIC50 [2]: 6.46

COc1cccc(OCCC(N)c2ccccc2)c1 (stereo not shown) [m-anisyl, H, H, 1-Phenyl-3-(m-anisyloxy)propylamine]
pIC50 [1]: 5.52 | pIC50 [2]: 5.70

Cc1ccc(OCCC(N)c2ccccc2)cc1 (stereo not shown) [p-tolyl, H, H]
pIC50 [1]: 5.68 | pIC50 [2]: 6.40

COc1ccc(OCCC(N)c2ccccc2)cc1 (stereo not shown) [p-anisyl, H, H, 3-(p-anisyloxy)-1-phenylpropylamine]
pIC50 [1]: 5.15 | pIC50 [2]: 6.46

COc1ccc(OCCC(c2ccccc2)N(C)C)cc1 (stereo not shown) [p-anisyl, CH3, CH3, N,N-dimethyl 3-(p-anisyloxy)-1-phenylpropylamine]
pIC50 [1]: 5.29 | pIC50 [2]: 6.55

Cc1cccc(OCCC(c2ccccc2)N(C)C)c1 (stereo not shown) [m-tolyl, CH3, CH3]
pIC50 [1]: 5.29 | pIC50 [2]: 7.10

Cc1ccc(OCCC(c2ccccc2)N(C)C)cc1 (stereo not shown)
pIC50 [1]: 5.30 | relative effectiveness, serotonin versus norepinephrine uptake (in words) [3]: far more effective in inhibiting serotonin uptake than in inhibiting norepinephrine uptake | ED50 [4]: 12 mg/kg | reduction in norepinephrine uptake [5]: less than 50% | mode of inhibition of serotonin uptake ([6]; 0.01, 0.05 and 0.1 μM): competitively inhibited uptake of serotonin | pKi ([6]; cortical synaptosomes, compound at 0.01, 0.05 and 0.1 μM, competitive, read-out: inhibitor constant KI, serotonin uptake): 7.22 | mode of inhibition of norepinephrine uptake [7]: competitively inhibited the uptake of norepinephrine | pKi ([7]; synaptosomes, competitive, read-out: inhibitory constant KI, norepinephrine uptake): 5.66 | block of uptake of monoamines (in words) [8]: particularly active in inhibiting the uptake of biogenic amines | estimated IC50, serotonin uptake by platelets [9]: 14 nmol | pIC50 [2]: 7.10 | pKi [10]: 5.60

NC(CCOc1ccc(C(F)(F)F)cc1)c1ccccc1 (stereo not shown) [p-trifluoromethylphenyl, H, H, 1-phenyl-3-(p-trifluoromethylphenoxy)propylamine]
pIC50 [1]: 5.00 | pIC50 [2]: 6.49

N[C@@H](Cc1c[nH]c2ccc(O)cc12)C(=O)O [l-5-hydroxytryptophane]
number of schizophrenic patients improved, of 7 ([11]; 6 of 7 patients): 6 patients | improvement in schizophrenic patients (in words) [11]: mild to moderate improvement
